Data reported in the METLIN SMRT retention time set (Domingo-Almenara et al. 2019).

Experiment: gradient 5% acetonitrile 3 min, to 50% in 2 min, to 85% in 15 min, held 3 min, 100 µL/min
Conditions: column: Zorbax Extend-C18 2.1 x 50 mm; eluents: water / acetonitrile, 0.1% formic acid
Method in brief: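 A Zorbax Extend-C18 column (2.1 × 50 mm, 1.8 μm) run at 100 μL/min with water and acetonitrile, both containing 0.1% formic acid, separated mixtures of ~100 pure standards. The HPLC was coupled to a quadrupole time-of-flight mass spectrometer operated in positive and negative ionization mode, with dead and dwell volumes of 40 μL and 900 μL. Each retention time was taken from a computationally picked adduct peak that was then manually inspected.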

| Structure (SMILES) | RP-LC retention time [s] |
| --- | --- |
| O=C(NCc1ccccc1C(F)(F)F)C1CCN(c2cncnc2N2CCOCC2)CC1 | 644 |
| CCCNC(=O)NCCC1CCN(S(=O)(=O)c2ccccc2)CC1 | 753 |
| COc1ccc(-n2nc(C(=O)Nc3ccc4c(c3)OCCO4)c(=O)cc2OC)cc1 | 758 |
| Cc1ccc(NC(=O)C2CCN(S(=O)(=O)c3cc(-c4noc(C5CC5)n4)cs3)CC2)cc1 | 1050 |
| CCCn1c(=O)sc2cc(S(=O)(=O)N3CCC(C(=O)Nc4cc(C)cc(C)c4)CC3)ccc21 | 1060 |
| CCCN(CCC)c1nc(-c2ccc(Cl)cc2)nc2ccccc12 | 961 |
| Cc1ccc2c(c1)C(O)(CC(=O)c1cccc(N)c1)C(=O)N2 (stereo unspecified) | 606 |
| CCCn1ccc2oc(C)c(C(=O)NC(C)c3ccc(F)cc3)c2c1=O (stereo unspecified) | 1040 |
| Cc1ccc(Nc2c(-c3ccc(Cl)cc3)nc3cccc(C)n23)cc1 | 810 |
| Cc1nc2sc(C)c(C)n2c(=O)c1NC(=O)COc1ccc(Cl)cc1Cl | 827 |
| CCOC(=O)c1[nH]c(C)c(CCC(=O)N2CCC(C(=O)NCCCN3CCCCC3)CC2)c1C | 607 |
| CCn1ccc2cc(S(=O)(=O)N3CCCC(C(=O)NCCCN(C)Cc4ccccc4)C3)ccc21 (stereo unspecified) | 715 |
| Cc1nnc(-c2c(S(=O)(=O)NC3CCCCC3)c(C)n(C)c2C)o1 | 814 |
| O=C(NC1CCCN(c2cc(N3CCCC3)ncn2)C1)c1ccoc1 (stereo unspecified) | 671 |
| Cc1cc(-n2nnc(C(=O)O)c2-c2ccccn2)ccc1F | 642 |
| CCn1c(=O)n(CC(=O)N2CCN(C)CC2)c(=O)c2cnc(-c3ccc(Cl)cc3)nc21 | 696 |
| CNS(=O)(=O)c1cccc(-c2nnc(-c3ccc(C)cc3)o2)c1 | 856 |
| CCn1c(C)c(C(=O)C(C)N(C(=O)c2ccc(C)cc2)C2CC2)c(C)c1C(=O)OC (stereo unspecified) | 1040 |
| CCSc1nnc(-c2nn(C)c3c2CN(C(=O)Nc2ccc(OC)cc2)CC3)n1CC | 809 |
| COc1ccc(-c2ccnn2-c2ccc(SCC(=O)Nc3cc(C)ccc3C)nn2)cc1 | 1140 |
| CN1CCn2cc(S(=O)(=O)Nc3ccc(F)cc3)cc2C1=O | 678 |
| CC(C)C(=O)N1CCCC(c2nc(CNC(=O)C3CCC3)cs2)C1 (stereo unspecified) | 679 |

| Structure (SMILES) | RP-LC retention time [s] |
| --- | --- |
| COc1ccc(CNC2=NCCNC23CCN(S(=O)(=O)c2c(C)cc(C)cc2C)CC3)cc1 | 834 |
| COc1cc(Cl)c(NC(=O)C2CCN(S(=O)(=O)c3cn(C(C)C)cn3)CC2)c(OC)c1 | 797 |
| COc1ccc(-c2noc(-c3ccc(NCC4CCCO4)nn3)n2)cc1 (stereo unspecified) | 782 |
| Cn1ncc2c(N3CCSCC3)nc(C(=O)NCc3cccs3)nc21 | 778 |
| CC(NC(=O)c1c(O)c2cccnc2n(-c2cccc(F)c2)c1=O)c1ccccc1 (stereo unspecified) | 1230 |
| Cc1c(C(=O)NCc2ccccc2Br)cc(-c2ccccc2)n1C | 1040 |
| Cc1ccc(-n2ccnc2SCc2nc(-c3cccc(C)c3)no2)cc1 | 1020 |
| Cc1ccc(CNC(=O)C2CCc3sc(C(=O)N(C)C)cc3C2)cc1 (stereo unspecified) | 692 |
| O=C(NCc1ccncc1)c1ccc(-c2ccsc2)nc1 | 589 |
| CCc1csc(-c2ccc(N3CCN(C(=O)c4nccc5ccccc45)CC3)nc2)n1 | 938 |
| CCCNC(=O)C1CCCN(c2ccc(SCC(=O)Nc3ccc(F)cc3F)nn2)C1 (stereo unspecified) | 657 |
| CCc1cc(=O)n(CC(=O)NCc2ccccc2)c(N2CCOCC2)n1 | 647 |
| O=S(=O)(c1ccc2c(c1)CCC2)N1CCC(Cc2nc(-c3ccncc3)n[nH]2)C1 (stereo unspecified) | 662 |
| COc1ccc(Cl)c2c(=O)c3c([nH]c12)CCN(CC(=O)NCc1ccc(F)cc1)C3 | 612 |
| Cc1nnc(-c2cn(CC(=O)NCc3ccccc3Cl)c3ccccc23)o1 | 821 |
| CC1CC(C)CN(CCCNC(=O)Cn2c(=O)c3cccn3c3ccccc32)C1 (stereo unspecified) | 620 |
| Cc1ccc(CN2C(=O)NC3(CCN(C(=O)c4ccc5c(c4)OCO5)CC3)C2=O)cc1 | 819 |
| Cc1cc(C(=O)NCc2ccc(N(C)C)cc2)c2c(=O)n(C)c(=O)n(C)c2n1 | 578 |
| CCC(CC)C(=O)N1CCc2[nH]nc(C(=O)NCCCc3ccccc3)c2C1 | 797 |
| CCCn1c(-c2cccc(C(=O)NCc3cccc(C(F)(F)F)c3)c2)nc2cccnc21 | 936 |
| NC(=O)Cc1csc(NC(=O)COc2ccc3c(c2)C(=O)CC3)n1 | 600 |
| Cc1ccc(CN2CC(c3ncc(C)n3Cc3cccnc3)C2)s1 | 683 |

| Structure (SMILES) | RP-LC retention time [s] |
| --- | --- |
| CCCn1cc(C(=O)NCCCOC)c(S(=O)(=O)N2CCN(c3cccc(Cl)c3)CC2)n1 | 1020 |
| CC(C)(C)c1ccc2oc(CN3CCN(C(=O)NCc4ccccc4)CC3)nc2c1 | 842 |
| CSc1ncccc1C(=O)N1CCc2cc(-c3ccno3)ccc21 | 871 |
| O=c1ccc(S(=O)(=O)N2CCOCC2)cn1Cc1cccc(Cl)c1 | 809 |
| CCc1ccccc1S(=O)(=O)N1CCc2nc(-c3ccc(OC)cc3)ncc2C1 | 1150 |
| COCCCNC(=O)N1CCN(c2nnc(C)c3c(C)n(-c4ccc(C)cc4)nc23)CC1 | 643 |
| CN1C(=O)C(C)(C(=O)NC2CCCCC2)Oc2cccnc21 (stereo unspecified) | 784 |
| O=C(Nc1cnc(N2CCCCCC2)nc1)C1CC1 | 714 |
| Cn1cccc1CN(C(=O)C1CCC1)C1CC1 | 796 |
| CCCN(C(=O)c1ccc(Br)cc1)C1(C(=O)NCc2ccccc2)CCN(C(C)=O)CC1 | 626 |
| CN1CCN(C(=O)Cn2c(-c3cccs3)cc3ccccc32)CC1 | 671 |
| O=C(COc1ccccc1)OCc1nc2ccccc2s1 | 929 |
| CNC(=O)CCc1nc2ccccc2n(CC(=O)NC(C)CCc2ccccc2)c1=O (stereo unspecified) | 728 |
| CCOc1ccc(NC(=O)C(C)C2CCN(C(=O)Nc3ccc(Cl)cc3)CC2)cc1 (stereo unspecified) | 942 |
| O=S(=O)(c1cccs1)N1CCCCC1c1nncn1CC1CC1 (stereo unspecified) | 752 |
| CC(=O)N1c2ccc(S(=O)(=O)N3CCCCCC3)cc2CC1C(=O)NCCc1ccccc1 (stereo unspecified) | 918 |
| Cc1ccc(CNC(=O)c2cccc3c2CCN3C(=O)c2ccc(F)cc2)o1 | 889 |
| O=C(Nc1ccc(F)cc1F)Nc1nccn(-c2ccc(F)cc2)c1=O | 942 |
| Cc1c(F)cccc1NC(=O)N1CC(Cc2nncn2C(C)C)C1 | 659 |
| Cc1nc2cccnc2n1CC1CCCN(S(=O)(=O)c2ccc(C(C)C)cc2)C1 (stereo unspecified) | 817 |
| COC(=O)c1cc(OCC(=O)Nc2cccc(OC)c2)c2cc(OC)ccc2n1 | 811 |
| Cc1sc(-c2nnc(C3CC3)o2)cc1NC(=O)C(C)c1ccccc1 (stereo unspecified) | 998 |
